The record followed here is patent US20130310421A1, “TREATMENT OF AMYLOID BETA AMYLOIDOSIS” (Temple University - Of The Commonwealth System of Higher …, priority 2012, published 2013).

For data set [1], the system named is γ-secretase-mediated cleavage of Notch. The experiment in a line: γ-secretase-mediated cleavage of Notch (NICD western blot) in transfected N2A-APPswe cells. It is filed as cell-based. To be noted: N2A-APPswe cells transfected with Myc-tagged mAE-Notch-1, 24-hour incubation vs vehicle. On the procedure: For transfection studies, N2A-APPswe cells were transfected with 1 μg Myc-tagged mAE-Notch-1 complementary DNA overnight (a generous gift from Dr. L. D'Adamio, Albert Einstein Medical College, NY) by using Lipofectamine 2000 (Invitrogen). The media were removed and fresh media containing MK-591, L685, 458 or vehicle was added. After a 24-hour incubation, cell lysates were collected and Notch intracellular domain (NICD) expression levels assayed by western blot analysis.

In data set [2] the test system is Tg2576 mice. The experiment in a line: General health and blood parameters of Tg2576 mice on chronic MK-591 diet. Format: in vivo, mouse. On the procedure: The Tg2576 transgenic mice expressing human APP with the Swedish mutation (K670N/M671L) used in these studies were previously described (Pratico D et al. J Neurosci 2001, 21(12):4183-4187). The mice were genotyped by polymerase chain reaction (PCR) analysis using tail DNA and kept in a pathogen-free environment, one 12-hour light/dark cycle and had access to food and water ad libitum. All the experiments presented herein were performed with female mice. Starting at 7 months of age, mice were randomized to receive MK-591 (40 mg/kg weight) (n=11) or vehicle (n=9) in their chow diet for 8 months until they were 15 months old. Considering that each mouse eats on average 5 g/day of chow diet and the diet is formulated for 320 mg MK-591 pwer kg diet (Harlan Teklad, Wis., USA), the final dose of the active drug was approximately 40 mg/kg weight/day.
Starting at seven months of age Tg2576 mice were randomized to receive MK-591 (320 mg/kg diet) or vehicle in their chow diet for 8 months before being sacrificed. Considering that each mouse eats on average 5 g/day of chow diet, the final dose of the active drug was approximately 40 mg/kg weight/day. By the end of the study, body weight, total plasma cholesterol, triglycerides and blood cell counts were not different between the two groups (not shown).

Data set [3] deals with 3xTg mice. The experiment in a line: Electrophysiology of hippocampal slices (fEPSP, PPF, LTP) of 3xTg mice. Format: in vivo, mouse. The settings on record: 3xTg-MK-591 mice, mean +/- SEM. The protocol:
The 3xTg mice harboring a mutant amyloid precursor protein (APP; KM670/671NL), a human mutant PS1 (M146V) knockin, and tau (P301L) transgenes, wild type mice (WT), and mice genetically deficient for FLAPKO (FLAPKO) used in this study were reported previously (Oddo S et al. Neuron 2003, 39:409-421; Byrum R S et al. J Exp Med 1997, 185:1065-1075). All the animals were backcrossed 10 times on the same genetic background C57BL6/SJL. The FLAPKO mice were crossbred several times with 3xTg mice to obtain founder animals (3xTg/FLAPKO), which were then crossed with each other. The animals from these crosses were used for the studies. […]
Six month old mice (n=# slices/# animals): WT (n=23/8); 3xTg (n=21/7); 3xTg-FLAPKO (n=21/6); 3xTg plus MK-591 (n=10/3) were sacrificed by rapid decapitation and brains were put into ice-cold artificial cerebral spinal fluid (CSF) in which sucrose (248 mM) was substituted for NaCl. […] We recorded field excitatory postsynaptic potentials (fEPSPs) from the CAl stratum radiatum by using an extracellular glass pipette ([…]) filled with ACSF. […] Baseline was recorded for 20 mins prior to tetanization with pulses every 30 seconds. […] The fEPSP rise/slope (mV/ms) between 30 and 90% was measured offline using Clampfit 10.3 (Molecular Devices, LLC) and normalized to the mean rise/slope of the baseline. […]

Where [4] appears, read: MK-591 approximately 40 mg/kg weight/day for 8 months vs vehicle, end of study.
[5] abbreviates: MK-591 approximately 40 mg/kg weight/day in chow for 8 months.

Entries after “also recorded” stand apart in the source; their conditions may differ.

On to `CC(C)C[C@H](NC(=O)[C@H](Cc1ccccc1)C[C@@H](O)[C@H](Cc1ccccc1)NC(=O)OC(C)(C)C)C(=O)N[C@@H](Cc1ccccc1)C(N)=O` [L685,458], for which, in data set [1], the “Notch intracellular domain (NICD) levels” value is “significant reduction”.
Consider `CC(C)(C)Sc1c(CC(C)(C)C(=O)O)n(Cc2ccc(Cl)cc2)c2ccc(OCc3ccc4ccccc4n3)cc12` [MK-591, 3-[3-tert-butylsulfanyl-1-[(4-chlorophenyl)methyl]-5-(quinolin-2-ylmethoxy)indol-2-yl]-2,2,-dimethylpropanoic acid], for which, in data set [2] (setting [4]), the blood cell counts result was “not different”, the total plasma cholesterol entry is “not different” and the triglycerides result is on record as “not different”. Further, in data set [2] (setting [5]), the overall general health result is recorded as “No macroscopic effect” and the “post-mortem macroscopic pathology of organs (spleen, liver, thymus, ileum)” value was “no sign of macroscopic pathology”. Besides, the body weight entry in data set [2] (MK-591 approximately 40 mg/kg weight/day in chow for 8 months vs vehicle) is “no significant difference; also recorded: not different”. Besides, the “LTP magnitude as percentage of baseline, 0-10 minutes post-tetanus” value in data set [3] (n=10 slices, 3xTg 159.9%, WT 274.6%) was 272.5%+/−13.2%. The “LTP magnitude as percentage of baseline, 170-180 minutes post-tetanus” value in data set [3] (3xTg 121.0%, WT 202.6%) was 202.5%+/−9.4%.
